From patent publication US20150258202A1, “ANTHOCYANIDIN COMPLEX FOR THE TREATMENT OF MULTIPLE MYELOMA” (priority 2012, published 2015)

Legend:
[1] = test system: mouse myeloma cell line MOPC-315; test: FACS analysis of dead cells stained with propidium iodide; type: cell-based; conditions: summary of BLI measurement and FACS analysis
Description: 1. Test Line and Experimental Setup • In the in vitro experiments, the effect of the delphinidin+sulfobutyl ether β-cyclodextrin complex (delphinidin+SBEBCD below) and delphinidin on the mouse myeloma cell line MOPC-315 (ATTC catalog no. TIB-23) was investigated by BLI (=bioluminescence imaging) measurement and FACS (fluorescence activated cell sorting) analysis described below. The methods used (BLI measurement and FACS analysis) are known to those skilled in the art from patent and technical literature, for example, from the FACS-based patent DE 1815352 C1.

[2] = Solubility of delphinidin chloride in aqueous cyclodextrin solutions (complexing); type: physicochemical; conditions: pure water, cyclodextrin concentration 0; stirred 30° C. 20 h in the dark, filtered 0.22 μm
Description: A reversed-phase HPLC method was used to determine the delphinidin chloride content in the delphinidin-containing compositions.
In this example, the complexing of delphinidin by various cyclodextrins and the solubility of the complex in aqueous solution are investigated.
Neutral aqueous solutions were prepared comprising 10% by weight of the respective cyclodextrin.
Glass flasks were filled with 5 ml each of aqueous cyclodextrin solution and pure water. An excess of delphinidin chloride was then added.
The suspensions were stirred at 30° C. for 20 h in the dark. The suspension was then filtered through a membrane filter of 0.22 μm pore size.

[3] = Stability trials in aqueous solution (0.9% NaCl, 37° C., delphinidin content by HPLC); type: physicochemical; conditions: 0.9% NaCl solution, dark
Description: To determine the delphinidin chloride content in the delphinidin-containing solutions, a reversed-phase HPLC method was used similar to the one already described above. The following reagents were used in this case:
The solutions were prepared at room temperature and subsequently stored in the dark at 37° C. in closed vials.
The delphinidin content was determined after 1, 2, 3 and 4 h. The table below gives the content determined as a percentage of the starting concentration stated above.
The determination of the delphinidin content in the samples was calculated with the aid of the Agilent ChemStation software using the calibration with the external standard described.

Oc1cc(O)c2cc(O)c(-c3cc(O)c(O)c(O)c3)[o+]c2c1.[Cl-] [Delphinidin chloride]
Killing of myeloma cells in vitro [1]: kill human myeloma cells in vitro
Dose dependence of cell killing ([1]; higher doses): virtually all cells are killed at higher doses
Delphinidin chloride (solubility achievable) [2]: 70 µg/mL
Delphinidin content as a percentage of the starting concentration ([3]; 0 h): 100%
Delphinidin content as a percentage of the starting concentration ([3]; 1 h): 8.3%
Delphinidin content as a percentage of the starting concentration ([3]; 2 h): 6.5%
Delphinidin content as a percentage of the starting concentration ([3]; 3 h): 5.6%
Delphinidin content as a percentage of the starting concentration ([3]; 4 h): 5.1%
